Results as given in US20260285850A1, “SUBSTITUTED OXAZOLIDINONES AND IMIDAZOLINONES AS HERBICIDES” (FMC CORPORATION, priority 2023, published 2026).

How the values were obtained:
Assay type in all cases: in vivo
corn (Zea mays) [1] = assay: Test A postemergence application, visual injury rating 0-100; details: 10 days
Outline: (§1)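 Grow plants in loam soil blended with sand. Apply formulated compound (non-phytotoxic solvent, surfactant) as a directed soil spray before emergence, or to plants at the one- to two-leaf stage after emergence. Hold in greenhouse 10 days, then rate injury visually versus untreated controls on a 0-100 scale.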

[2] = system: barnyardgrass (Echinochloa crus-galli); assay: as above; details: 10 days
Outline: as §1

[3] = system: galium (catchweed bedstraw, Galium aparine); assay: as above; details: 10 days
Outline: as §1

[4] = system: oat, wild (wild oat, Avena fatua); assay: as above; details: 10 days
Outline: as §1

kochia (Bassia scoparia) [5] = assay: as above; details: 10 days
Outline: as §1

soybean (Glycine max) [6] = assay: as above; details: 10 days
Outline: as §1

[7] = system: palmer (palmer amaranth, palmer pigweed, Amaranthus palmeri); assay: as above; details: 10 days
Outline: as §1

[8] = system: green foxtail (Setaria viridis); assay: as above; details: 10 days
Outline: as §1

[9] = system: ragweed (common ragweed, Ambrosia artemisiifolia); assay: as above; details: 10 days
Outline: as §1

[10] = system: wheat (Triticum aestivum); assay: as above; details: 10 days
Outline: as §1

[11] = system: horseweed (Erigeron canadensis); assay: as above; details: 10 days
Outline: as §1

[12] = system: blackgrass (Alopecurus myosuroides); assay: as above; details: 10 days
Outline: as §1

[13] = system: ryegrass, Italian (italian ryegrass, Lolium multiflorum); assay: as above; details: 10 days
Outline: as §1

corn (Zea mays) [14] = assay: Test A preemergence soil spray, visual injury rating 0-100; details: 10 days, 0 = no effect, 100 = complete control
Outline: as §1

[15] = system: barnyardgrass (Echinochloa crus-galli); assay: as above; details: 10 days, 0 = no effect, 100 = complete control
Outline: as §1

[16] = system: oat, wild (wild oat, Avena fatua); assay: as above; details: 10 days, 0 = no effect, 100 = complete control
Outline: as §1

kochia (Bassia scoparia) [17] = assay: as above; details: 10 days, 0 = no effect, 100 = complete control
Outline: as §1

soybean (Glycine max) [18] = assay: as above; details: 10 days, 0 = no effect, 100 = complete control
Outline: as §1

[19] = system: palmer (palmer amaranth, palmer pigweed, Amaranthus palmeri); assay: as above; details: 10 days, 0 = no effect, 100 = complete control
Outline: as §1

[20] = system: green foxtail (Setaria viridis); assay: as above; details: 10 days, 0 = no effect, 100 = complete control
Outline: as §1

[21] = system: ragweed (common ragweed, Ambrosia artemisiifolia); assay: as above; details: 10 days, 0 = no effect, 100 = complete control
Outline: as §1

[22] = system: wheat (Triticum aestivum); assay: as above; details: 10 days, 0 = no effect, 100 = complete control
Outline: as §1

[23] = system: blackgrass (Alopecurus myosuroides); assay: as above; details: 10 days, 0 = no effect, 100 = complete control
Outline: as §1

rice (Oryza sativa) = assay: Test B flooded paddy test, visual plant response rating 0-100; details: 250 g ai/ha, Flood, applied to paddy water, evaluated after 13 days
Outline: (§2)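 Visual scores versus untreated controls were recorded 13 days after treatment of greenhouse-held plants. At the 2-leaf stage, pots were flooded 3 cm above the soil surface and compounds added straight to the water.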

[24] = system: sedge, umbrella (small-flower umbrella sedge, Cyperus difformis); assay: as above; details: 250 g ai/ha, Flood, applied to paddy water, evaluated after 13 days
Outline: as §2

[25] = system: ducksalad (Heteranthera limosa); assay: as above; details: 250 g ai/ha, Flood, applied to paddy water, evaluated after 13 days
Outline: as §2

[26] = system: barnyardgrass (Echinochloa crusgalli); assay: as above; details: 250 g ai/ha, Flood, applied to paddy water, evaluated after 13 days
Outline: as §2

[27] = 31 g ai/ha, postemergence, 0 = no effect, 100 = complete control
[28] = Postemergence, 125 g ai/ha, 0 is no effect, 100 is complete control

CC(C)OC(=O)C1=CCC(NC(=O)C2(C)CN(c3cc(F)cc(F)c3)C(=O)O2)C1 (centres unmarked) [Compound 5]
Corn plant response rating (0-100) (corn (Zea mays) [1]; [27]): 60
Corn plant response rating (0 to 100 scale) (corn (Zea mays) [1]; [28]): 100
Barnyardgrass plant response rating (0-100) [2, 27]: 100
Barnyardgrass plant response rating (0 to 100 scale) [2, 28]: 100
Galium plant response rating (0-100) [3, 27]: 80
Galium plant response rating (0 to 100 scale) [3, 28]: 80
Oat, Wild plant response rating (0-100) [4, 27]: 90
Oat, Wild plant response rating (0 to 100 scale) [4, 28]: 90
Kochia plant response rating (0-100) (kochia (Bassia scoparia) [5]; [27]): 30
Kochia plant response rating (0 to 100 scale) (kochia (Bassia scoparia) [5]; [28]): 80
Soybean plant response rating (0-100) (soybean (Glycine max) [6]; [27]): 60
Soybean plant response rating (0 to 100 scale) (soybean (Glycine max) [6]; [28]): 70
Amaranth, Palmer plant response rating (0-100) [7, 27]: 40
Amaranth, Palmer / Pigweed, Palmer plant response rating (0 to 100 scale) [7, 28]: 50
Foxtail, Green plant response rating (0-100) [8, 27]: 30
Foxtail, Green plant response rating (0 to 100 scale) [8, 28]: 90
Ragweed plant response rating (0-100) [9, 27]: 50
Ragweed plant response rating (0 to 100 scale) [9, 28]: 70
Wheat plant response rating (0-100) [10, 27]: 90
Wheat plant response rating (0 to 100 scale) [10, 28]: 90
Horseweed plant response rating (0-100) [11, 27]: 10
Horseweed plant response rating (0 to 100 scale) [11, 28]: 50
Blackgrass plant response rating (0-100) [12, 27]: 50
Blackgrass plant response rating (0 to 100 scale) [12, 28]: 90
Ryegrass, Italian plant response rating (0-100) [13, 27]: 60
Ryegrass, Italian plant response rating (0 to 100 scale) [13, 28]: 90
Corn plant response rating (0-100) (corn (Zea mays) [14]; 31 g ai/ha): 0
Corn plant response rating (0 to 100 scale) (corn (Zea mays) [14]; 125 g ai/ha): 50
Barnyardgrass plant response rating (0-100) ([15]; 31 g ai/ha): 0
Barnyardgrass plant response rating (0 to 100 scale) ([15]; 125 g ai/ha): 100
Oat, Wild plant response rating (0-100) ([16]; 31 g ai/ha): 20
Oat, Wild plant response rating (0 to 100 scale) ([16]; 125 g ai/ha): 90
Kochia plant response rating (0-100) (kochia (Bassia scoparia) [17]; 31 g ai/ha): 0
Kochia plant response rating (0 to 100 scale) (kochia (Bassia scoparia) [17]; 125 g ai/ha): 90
Soybean plant response rating (0-100) (soybean (Glycine max) [18]; 31 g ai/ha): 0
Soybean plant response rating (0 to 100 scale) (soybean (Glycine max) [18]; 125 g ai/ha): 60
Amaranth, Palmer plant response rating (0-100) ([19]; 31 g ai/ha): 20
Amaranth, Palmer plant response rating (0 to 100 scale) ([19]; 125 g ai/ha): 100
Foxtail, Green plant response rating (0-100) ([20]; 31 g ai/ha): 20
Foxtail, Green plant response rating (0 to 100 scale) ([20]; 125 g ai/ha): 100
Ragweed plant response rating (0-100) ([21]; 31 g ai/ha): 0
Ragweed plant response rating (0 to 100 scale) ([21]; 125 g ai/ha): 0
Wheat plant response rating (0-100) ([22]; 31 g ai/ha): 0
Wheat plant response rating (0 to 100 scale) ([22]; 125 g ai/ha): 80
Blackgrass plant response rating (0-100) ([23]; 31 g ai/ha): 30
Blackgrass plant response rating (0 to 100 scale) ([23]; 125 g ai/ha): 40
Plant response rating, Rice (0 to 100 scale, 0 is no effect and 100 is complete control) (rice (Oryza sativa)): 20
Plant response rating, Sedge, Umbrella (0 to 100 scale, 0 is no effect and 100 is complete control) [24]: 95
Plant response rating, Ducksalad (0 to 100 scale, 0 is no effect and 100 is complete control) [25]: 80
Plant response rating, Barnyardgrass (0 to 100 scale, 0 is no effect and 100 is complete control) [26]: 65
